“Also recorded” adds a separate entry of the source.
Assays:
786-O cells = test: Colony formation, 786-O isogenic cells; format: cell-based, human; settings: 786-O with and without PBRM1, vs DMSO
Procedure: (§1) Colony formation of parental (WT) or PBRM1 knockout (KO) 786-O cells expressing shRNA against non-targeting control (NC), RELA, or NFKB1 cultured with a) 10% or b) 2% serum. c) Gene expression changes of NF-κB target genes in 786-O cells treated with 0.006 μM bortezomib (BTZ) or 0.6 µM Bay 11-7085 for 24 hours (n=3 technical replicates). * p-value<0.05 (two-sided t-test). […] A positive log fold change refers to gain in bortezomib treatment over DMSO. g) Colony formation of 786-O isogenic cells and h) NCC432 isogenic cells treated with bortezomib for a week. Tumor formation of isogenic 786-O cells (i) and NCC432 cells (j) treated with PBS control or 0.5 mg/kg bortezomib (BTZ) in NSG mice. (n=10 tumors per group for 786-O, and n=16 tumors for NCC432 PBS EV group and 12 tumors for NCC432 PBS PBRM1 group and 14 tumors for both NCC432 EV and PBRM1 BTZ groups). Data are presented as mean values+/−SEM. k) Model for the study.
Data are presented as median+/−25%. […] Data are presented as mean values+/−SD. e) Tornado plots of RELA and SMARCA4 ChIP-seq signals in parental 786-0 or PBRM1-KO 786-O cells treated with DMSO or 0.005 μM bortezomib for 9 hours. f) Kaplan-Meier curves of NSG mice bearing 786-O isogenic cells treated with PBRM1 control or 0.5 mg/kg bortezomib (WT: n=10 PBS arm, median survival=39 days; n=10 bortezomib arm, median survival=52 days, HR=4.1, p=3E-6, log rank test; KO: n=10 PBS arm, median survival=35 days, n=10 bortezomib arm, median survival=66 days, HR=4.1, p=3E-6, log rank test). g) Kaplan-Meier curves of NSG mice bearing NCC432 isogenic cells treated with PBRM1 control or 0.5 mg/kg bortezomib (EV: n=16 PBS arm, median survival=42 days; n=14 bortezomib arm, median survival=49 days, HR=2.5, p=0.0009, log rank test; PBRM1: n=12 PBS arm, median survival=55 days; n=14 bortezomib arm, median survival=58 days, HR=1.2, p=0.5, log rank test). h) 786-O PBRM1 WT or KO cells were screened against the high-specific SGC epigenetic probe collection and cell viability was measured by colony formation after 1 week of treatment relative to DMSO control. […]

IκBα / NF-κB = settings: cited from earlier work
[1] = test system: NF-κB target genes (786-O cells); test: RT-qPCR of NF-κB target genes after NF-κB inhibitor, 786-O; format: cell-based, human; settings: 0.006 μM bortezomib or 0.6 µM Bay 11-7085, 24 hours
Procedure: as §1

[2] = test system: NF-κB target genes (NCC432 cells); test: RT-qPCR of NF-κB target genes after SMARCA2/4 ATPase inhibitor, NCC432; format: cell-based, human
Excerpt: Data are presented as mean values+/−SD. b) Colony formation of 786-O cells expressing shRNA against non-targeting control (NTC) or ARID2. c) Colony formation of 786-O cells expressing shRNA against non-targeting control (NTC) or SMARCA4. d) Immunoblotting and e) colony formation of NCC432 cells expressing shRNA against non-targeting control (NTC) or ARID2 (n=3 biological replicates). Data are presented as mean values+/−SD. * p<0.05, ** p<0.01 (two-sided t-test). f) Immunoblotting and g) colony formation of NCC432 cells expressing shRNA against non-targeting control (NTC) or SMARCA4 (n=4 biological replicates). Data are presented as mean values+/−SD. *** p<0.001, **** p<0.0001 (two-sided t-test). In vivo tumor formation in h) 786-O parental cells and i) 786-0 PBRM1 KO cells expressing shRNA against non-targeting control (NTC), ARID2 (clone 1) or SMARCA4 (clone 2) (n=10 tumors per group). Data are presented as mean values+/−SEM for tumor growth and mean values+/−SD for tumor weight. **** p<0.0001 (two-sided t-test).
It was previously shown that inhibiting the SMARCA4 ATPAse subunit abolished chromatin accessibility and binding of SMARCA4-dependent transcription factors. To understand whether the activation of pathway requires the ATPase activity of SMARCA4, 786-O and NCC432 cells were treated with SMARCA2/4 ATPase inhibitor. […]

[3] = test system: NF-κB pathway (786-O cells); test: RNA-seq gene set enrichment of direct NF-κB targets after SMARCA2/4 ATPase inhibitor, 786-O; format: cell-based, human; settings: 10 μM, 24 hours
Procedure: Data are presented as mean values+/−SD. b, c) 786-O parental and PBRM1 KO cells were treated with 10 μM of SMARCA2/4 ATPase inhibitor for 24 hours and transcriptomic changes were evaluated by RNA-seq (n=2 biological replicates). […] P values were calculated by Kolmogorov-Smirnov test and q value was adjusted for multiple hypotheses testing using gene permutation. d) 786-O cells expressing dox inducible shRNA against ARID2 were treated with 1 μg/ml doxycycline for 2 days and the gene expression of NF-κB targets were quantified by RT-qPCR (n=3 technical replicates representative of 2 biological replicates). Data are presented as mean values+/−SD. * p<0.05, ** p<0.01 (two-sided t-test). e) Single cell clones of either PBRM1 or ARID2 knockout were created in 769-P cells. […] P values were calculated by Kolmogorov-Smirnov test and q values were adjusted for multiple hypotheses testing using gene permutation. […]
Total RNA was extracted using the Qiagen RNeasy Mini kit. […] Sequencing was performed on an Illumina HiSeq4000 sequencer with the paired-end 150 bp read option.
RNA-Seq Pathway Analysis RNA-seq data were mapped to hg19 (h117d5) using STAR, with GENCODE annotation (gencode.v19.annotation.gtf) and recommended settings from STAR manual. Gene expression levels were quantified with STAR. […]

[4] = test system: NF-κB target genes (786-O cells); test: RT-qPCR of NF-κB target genes after SMARCA2/4 ATPase inhibitor, 786-O; format: cell-based, human
[5] = test system: RELA occupancy at NF-κB target genes; test: ChIP-qPCR of RELA occupancy after SMARCA2/4 ATPase inhibitor, 786-O; format: cell-based, human; settings: PB1-deficient setting, 24 hours
Procedure: For each protein of interest, approximately 2×10^7 cells were cross-linked with 1% formaldehyde for 10 min at room temperature, and stopped by adding glycine to a final concentration of 0.2M. Chromatin was extracted and sonicated to ~500 bp (Vibra cell, SONICS). The following antibodies were used for chromatin immunoprecipitation: PBRM1 (Bethyl A301-591A Lot: 3-4), SMARCA4 (AbCAM ab110641 Lot: GR3208604-8), ARID2 (Bethyl A302-230A Lot: 2), BRD7 (Bethyl A302-304A Lot: 1), ARID1A (Santa Cruz sc-32761 Lot: #H2217), SMARCC1 (Santa Cruz sc-32763 Lot: #K1617), NFkB p65/RELA (Santa Cruz sc-372 Lot: #J1915; Diagenode C15310256, Lot: 24468; Invitrogen 51-0500, Lot: WG331314), BRD9 (Bethyl A303-781A, Lot2), RNA POL II (Merck Millipore 05-623 Lot: 2958013), H3K27ac (AbCAM ab4729-100 Lot: 741806), H3K14ac (AbCAM ab52946 Lot: GR3252548-5), H3K4me3 (Merck Millipore 07-473 Lot: 2930138), H3K4me1 (AbCAM ab8895 Lot: GR312093-1), H3K27me3 (Millipore 07-449 Lot: JBC1924326), H3K9me3 (Millipore 07-442 Lot: DAM1411287). The total volume of immunoprecipitation was 2 ml and the amount of antibody used was 20 μg. The input DNA was precleared with protein G Dynabeads (LifeTechnologies) for 2 hours at 4 °C and then incubated with antibodies overnight at 4 °C. […] Each library was sequenced to an average depth of 30-50 million reads on HiSeq2000, HiSeq4000 or Novaseq 6000.

RCC = settings: best responder to the combined therapy; cited from earlier work

Molecule: CC(C)(C)c1ccc(S(=O)(=O)/C=C/C#N)cc1 [Bay 11-7085]
- reducing colony formation (786-O cells): not Bay 11-7085 was effective
- effect on IκBα phosphorylation (IκBα / NF-κB; TNFα-induced vs basal): inhibits TNFα-induced but not basal IκBα phosphorylation
- effect on nuclear translocation of NF-κB (IκBα / NF-κB; TNFα-induced): prevents TNFα-induced nuclear translocation of NF-κB
- suppressing the expression of NF-κB target genes [1]: not Bay 11-7085 was effective

Molecule: O=C(Nc1cc(C(F)F)ns1)Nc1cc(F)ncc1CO [SMARCA2/4 ATPase inhibitor]
- downregulation of BCL2A1 and TNF, PB1-deficient vs proficient ([2]; NCC432): greater downregulation in the PB1-deficient setting compared to the proficient setting
- downregulation of NF-κB target genes ([2]; NCC432 empty vector or PBRM1, 3 days): dose-dependent downregulation of NF-κB target genes
- gene set enrichment of direct NF-κB targets, PB1-deficient vs parental [3]: greater effect of NF-κB downregulation in PB1-deficient cells compared to parental 786-O cells; also recorded: greater downregulation of NF-κB pathway in PBRM1-deficient cells compared to parental 786-O cells
- downregulation of BCL2A1 and TNF, PB1-deficient vs proficient ([4]; 786-O): greater downregulation in the PB1-deficient setting compared to the proficient setting
- downregulation of NF-κB target genes ([4]; 786-O parental and PB1 KO, 10, 20 and 50 μM, 3 days): dose-dependent downregulation of NF-κB target genes
- sensitivity of PDLIM4 and APOL3 expression ([4]; both PB1-proficient and deficient setting): exquisitely sensitive
- regions probed with significantly decreased RELA occupancy [5]: 5/6

Molecule: bevacizumab: bevacizumab therapy
- prior therapy outcome (RCC): failed

Reference: patent US20260357349A1, “METHODS OF IDENTIFYING AND TREATING CANCER” (Agency for Science, Technology and Research, priority 2022, published 2026)
